The data set can be described thus: Forced degradation of the phenylalkyl carbamate as a function of pH (pH 9 carbonate buffer, LC-MS). Format: physicochemical. The following applies: room temperature. How it is done: Under certain conditions of elevated temperature and relative humidity, such as, 25° C. and 40% RH, 25° C. and 60% RH, 25° C. and 80% RH, 45° C. and 20% RH, 45° C. and 40% RH, 45° C. and 60% RH, 45° C. and 80% RH, or 40° C. and75% RH and the like, an exposed compound or composition may be subject to degradation.
As shown in Scheme A, a sample of Compound A1, the carbamic acid (2R)-2-(2-chloro-phenyl)-2-hydroxy-ethyl ester compound of formula (Ib), was dissolved in a pH 9 carbonate buffer.
The sample was analyzed by LC-MS under reverse phase conditions using positive ion ESI and APCI detection.

For `NC(=O)OC[C@H](O)c1ccccc1Cl` [Compound A1, carbamic acid (2R)-2-(2-chloro-phenyl)-2-hydroxy-ethyl ester], the Degradation in solution entry is reported as “degradation products had formed in appreciable amounts”.

Values taken from patent US20080090903A1, “PHENYLALKYL CARBAMATE COMPOSITIONS” (priority 2006, published 2008).
